Measurements from patent US20080242594A1, “Methods for Promoting Stem Cell Proliferation and Survival” (priority 2005, published 2008).

Legend:
[1] = test system: mES (D3) cells; experiment: mES cell plating efficiency, Oct4 and STAT3 phosphorylation in the presence of LIF; format: cell-based, mouse; details: for Oct4 expression: five day treatments in the presence of LIF; for cell survival in a plating efficiency assay: in the presence of LIF
Text: FIGS. 10a-10c are a set of images showing JAK inhibition reduces the phosphorylation of STAT3 on Ser727 in mES cell cultures. […] Very low levels of phosphorylated p38 were detectable under all conditions. […] Self-renewal of mES cells correlated with Ser727 phosphorylation.
mES (D3) cells were obtained from ATCC and were maintained in feeder-free cultures on gelatin-coated plates supplemented with 1400 units/ml LIF.
There is great interest in conditions that support the growth of mouse and human ES cells. In contrast to CNS SC (FIG. 2, FIG. 3) and hES SC (se below), the growth of undifferentiated mouse ES cells depends on the stimulation of the JAK/STAT pathway and STAT3 phosphorylation on Tyr705 has been specifically shown to be essential for self-renewal of mouse ES cells (Niwa et al., Genes Dev 12:2048-60, 1998; Matsuda et al., Embo J 18:4261-9, 1999). Ligands that stimulate the JAK/STAT pathway cause human ES cells to differentiate (Daheron et al., Stem Cells 22:770-8, 2004; Humphrey et al., Stem Cells 22:522-30, 2004). It was determined if the Notch/sSTAT survival pathway is present in mouse or human ES cells.

[2] = test system: E13.5 cortical embryonic mouse CNS stem cells; experiment: CNS stem cell plating efficiency / colony formation / survival; format: cell-based
Method: (§1) Cell culture: E13.5 cortical embryonic mouse and adult rat subventricular zone CNS stem cells were grown as previously described (Johe et al., Genes Dev 10:3129-40, 1996; Rajan et al., J Neurosci 18:3620-9, 1998). Cells were expanded in serum-free DMEM/F12 medium with N2 supplement with FGF2 (20 ng/ml) for 5 days and were re-plated at 1000-10,000 cells per cm^2. FGF2 was included throughout our experiments, unless otherwise stated.
To explore these paradoxical observations, CNS stem cell cultures from mid-gestation (embryonic day 13.5) mouse dorsal telencephalon were treated with soluble Notch ligands. […] Following initial passaging, the cells were plated at a density of 1000 cells/cm^2, cultured for 5 days in the presence of FGF2, and colony numbers, sizes, and BrdU incorporation (after a 4 hour BrdU pulse) were enumerated. Notch activation by Jagged-1 or Delta-4 (200 ng/ml) increased the number of colonies generated in vitro by over 3-fold (FIG. 1a). […] The effects of Notch activation were most dramatic when treatments were initiated at the start of the culture.
Insulin in the medium is also thought to promote cell survival. […] Seeding cells in the absence of insulin caused the plating efficiency measured at five days to drop to 29.9%±37.9 (FIG. 1e). Delta-4 was able to compensate for the lack of insulin in the medium, and restored plating efficiency (125%±19.4). Because Notch activation improved survival, activation of Akt, a ser/threonine kinase known to be involved in cell survival, was assayed. Notch activation rapidly (5 minutes) promoted the phosphorylation of Akt on Ser473 and […] in both the presence and absence of insulin (FIG. 1f).

[3] = test system: STAT3; experiment: STAT3 phosphorylation (Ser727, Tyr705) immunoblot in CNS stem cells; format: cell-based, mouse
Text: Ligands that activate JAK/STAT signaling promote astrocytic differentiation of CNS stem cells (Johe et al., Genes Dev 10:3129-40, 1996; Raj an et al., J Neurosci 18:3620-9, 1998; Bonni et al., Science 278:477-83, 1997; Song et al., Nat Neurosci 7:229-35, 2004; He et al., Nat Neurosci 8:616-625, 2005). When applying CNTF to CNS stem cells it was noted that low concentrations of CNTF stimulated survival but not expression of astrocyte specific genes. This is consistent with previous observations of Akt phosphorylation downstream of gp130 activation (Taga et al., Annu Rev Immunol 15:797-819, 1997). […] At high concentrations (20 ng/ml) the phosphorylation of Tyr705 can be blocked by an inhibitor of JAK while allowing a CNTF-induced increase in Ser727 phosphorylation (FIG. 2B) (Thompson et al., Bioorg Med Chem Lett 12:1219-23, 2002).
CNTF was used as a positive control; CNTF, induced the phosphorylation on both sites. With both CNTF and Notch activation, phosphorylation peaked at around 30 min. STAT3 phosphorylation on Ser727 following Notch activation was sensitive to the γ-secretase inhibitor DAPT (FIG. 2e). […] In contrast to CNTF, no Tyr705 phosphorylation was detected at any of the doses of Notch receptor ligands.
It was determined that insulin also maintains phosphorylation of serine 727 in STAT3 in foetal neural stem cell cultures.

[4] = test system: Hes3; experiment: Hes3 expression (RT-PCR, immunohistochemistry) in CNS stem cells; format: cell-based, mouse; details: for Hes3 mRNA levels: CNTF 20 ng/ml
Method: RT-PCR: For reverse-transcriptase PCR analysis, RNA was extracted from cell cultures or brain homogenates with Trizol (Invitrogen, 15596-026), and PCR reactions were performed with the ProSTAR First-Strand RT-PCR Kit (Stratagene, 200420). Primers were used for the following genes: Hes1, Hes2, Hes3, Hes5, Hes6, Hey2; Hes7
Notch signaling regulates transcription of the Hes/Hey gene family, a group of genes implicated in the control of differentiation (Iso et al., J Cell Physiol 194:237-55, 2003). RT-PCR was used to assess mRNA regulation of these genes one hour after Notch activation in CNS stem cells. […] The ability of high concentrations of CNTF to inhibit Hes3 induction following Notch activation was dependent on JAK activity (FIG. 4e). In contrast, in the absence of added Notch ligand, Hes3 mRNA levels were elevated by high CNTF and the JAK inhibitor (FIG. 4e).
Conversely, treatment with ciliary neurotrophic factor (CNTF), a cytokine that opposes the signal transduction pathway downstream of Notch activation opposed the ability of D114 to induce Hes3 transcription. Immunohistochemical experiments were performed that documented D114, CNTF regulate Hes3 expression. Thus, at the protein expression level, D114 maintains and CNTF inhibits Hes3 expression.

[5] = test system: adult rat SVZ stem cells; experiment: Adult SVZ stem cell plating efficiency and colony size; format: cell-based
Method: as §1
Very little protein or mRNA were detected outside the SVZ (FIG. 4g). Adult CNS stem cells can be cultured as a monolayer in vitro (FIG. 4h) and they show similar responses to extracellular signals that regulate stem cell differentiation upon withdrawal of the mitogen that sustains the undifferentiated state (Johe et al., Genes Dev 10:3129-40, 1996). To ask if Notch activation promotes survival in rat adult SVZ cultures, isolated cells were grown in the presence of FGF2 with and without Delta-4 for one week. […] When FGF2 was withdrawn for a week, cells at clonal density generated all three CNS lineages (FIG. 8C, Table 4).

[6] = in the presence of FGF2 for one week

Compound | Oct4 expression [1] | cell survival in a plating efficiency assay [1] | plating efficiency ([2]; absence of insulin in the medium, five days) | concentration at which peak STAT3 phosphorylation was achieved ([3]; dose response, Ser727) [ng/mL] | Hes3 mRNA levels [4] | Hes3 expression at the protein expression level ([4]; immunohistochemical) | colony size [5, 6] | plating efficiency [5, 6] | STAT3 phosphorylation on Ser727 and Tyr705 ([1]; 90 min) | CNS stem cell survival / plating efficiency ([2]; 5 days, versus FGF2 control, CNTF low 0.01, 0.1 ng/ml or high 20 ng/ml with JAK inhibitor) | effect on CNTF-induced STAT3 phosphorylation ([3]; CNTF 20 ng/ml) | enhancement of plating efficiency [5]
Delta-4: soluble Notch ligand Delta-4 (1389-D4) from R&D | did not affect Oct4 expression | did not significantly alter cell survival | 125%±19.4 | ~1 | increases its transcription | maintains | 278.5%±52.5 | 1050%±273.8 |  |  |  | 
CC(C)(C)c1nc2c3ccc(F)cc3c3c(=O)[nH]ccc3c2[nH]1 [JAK Inhibitor, 2-(1,1-Dimethylethyl)-9-fluoro-3,6-dihydro-7H-benz[h]-imidaz[4,5-f]isoquinolin-7-one] | down-regulated Oct4 | reduced it |  |  | no effect on Hes3 mRNA |  |  |  | significant down-regulation | increased survival | selectively blocked Tyr705 but not Ser727 phosphorylation | approx. 40%
